Test results taken from patent US7825279B2, “Fused ring dicationic anti-protozoan agents and their prodrugs” (The University of North Carolina at Chapel Hill, priority 2003, dated 2010).
Read-outs that look alike come from different tables or passages of the source.

How the values were obtained:
[1] = test system: poly dA-dT; test: DNA ΔTm poly dA-dT; type: binding; parameters: unit not given here
[2] = test system: Trypanosoma brucei rhodesiense; test: in vitro IC50 versus Trypanosoma brucei rhodesiense (T.b.r.); type: cell-based
[3] = test system: Plasmodium falciparum; test: in vitro IC50 versus Plasmodium falciparum (P.f.); type: cell-based
[4] = test system: virulent STIP90° strain of T.b.r.; test: in vivo T.b.r. mouse model; conditions: for In vivo T.b.r. Cures: cures/animals
[5] = Trypanosoma brucei, RHODESIENSE
[6] = Plasmodium falciparum, in vitro, read-out: P.f. IC50

SMILES | DNA ΔTm poly dA-dT [1] | IC50 [2, 5] | IC50 ([3]; Plasmodium falciparum, in vitro, read-out: IC-50 versus Plasmodium falciparum (p.f.)) | IC50 [3, 6] | In vivo T.b.r. survival days [4] | In vivo T.b.r. Cures [4] | IC50 [2] | IC50 ([3]; in vitro, read-out: P.f. IC50) | IC50 ([2]; Dihydrochloride) | IC50 ([3]; Plasmodium falciparum, read-out: P.f. IC50)
Cl.Cl.N=C(N)Nc1ccc2c(c1)Cc1cc(NC(=N)N)ccc1-2 [Compound 5a, 2,7-Bis-guanidino-9H-fluorene Dihydrochloride] | 13.6 | 24 nM | ≤ 10 nM | 2.3 nM | 6 days | 0/4 | – | – | – | –
Cl.Cl.N=C(N)Nc1ccc2c(c1)C(=O)c1cc(NC(=N)N)ccc1C2=O [Compound 5c, 2,7-Bis-guanidinoanthraquinone Dihydrochloride] | 7.2 | 128 nM | – | 23.5 nM | 27 days | 0/4 | – | – | – | –
CCOC(=O)NC(=N)Nc1ccc2c(c1)C(=O)c1cc(NC(=N)NC(=O)OCC)ccc1-2 [Compound 7b, 2,7-Bis(N″-ethoxycarbonyl)guanidinofluoren-9-one] | −0.3 | – | – | – | 6 days | 0/4 | 1200 nM | 3200 nM | – | –
Cl.Cl.N=C(N)Nc1ccc2c(c1)C(=O)c1cc(NC(=N)N)ccc1-2 [Compound 5b, 2,7-Bis-guanidinofluoren-9-one Dihydrochloride] | 6.1 | ≤ 13 nM | – | 268 nM | 50.75 days | 2/4 | – | – | 7.3 nM | –
c1ccc(N=Nc2ccc3c(c2)Cc2cc(N=Nc4ccccc4)ccc2-3)cc1 [Compound 9a, 2,7-Bis[(phenylimino)amino]-9H-fluorene] | 22 | 292 nM | – | – | 7 days | 0/4 | – | – | – | 481 nM
c1ccc(N=Nc2ccc3c(c2)Cc2cc(N=Nc4ccccn4)ccc2-3)nc1 [Compound 9b, 2,7-Bis[(2-pyridylimino)amino]-9H-fluorene] | 15.2 | 894 nM | – | 1200 nM | – | – | – | – | – | –
CNC(=N)Nc1ccc2c(c1)Cc1cc(NC(=N)NC)ccc1-2 [Compound 8a, 2,7-Bis(N′-methyl)guanidino-9H-fluorene] | 10.1 | – | – | – | 52 days | 3/4 | 13 nM | 10 nM | – | –
CCOC(=O)NC(=N)Nc1ccc2c(c1)Cc1cc(NC(=N)NC(=O)OCC)ccc1-2 [Compound 7a, 2,7-Bis(N″-ethoxycarbonyl)guanidino-9H-fluorene] | 0.3 | – | – | – | 18.75 days | 0/4 | 1400 nM | 2100 nM | – | –
CC(C)NC(=N)Nc1ccc2c(c1)Cc1cc(NC(=N)NC(C)C)ccc1-2 [Compound 8b, 2,7-Bis(N-iso-propyl)guanidino-9H-fluorene] | 9.3 | – | – | – | 60 days | 4/4 | 40.4 nM | 35.7 nM | – | –
CCOC(=O)NC(=NC)Nc1ccc2c(c1)Cc1cc(NC(=NC)NC(=O)OCC)ccc1-2 [Compound 7c, 2,7-Bis(N″-ethoxycarbonyl-N′-methyl)guanidino-9H-fluorene] | – | – | – | – | – | – | 2900 nM | 1000 nM | – | –
Cl.Cl.Cl.N=C(N)Nc1ccc2cc3ccc(NC(=N)N)cc3nc2c1 [Compound 5d, 3,6-bis-guanidinoacridine Trihydrochloride] | 7.7 | 67 nM | – | 227 nM | 16.25 days | 0/4 | – | – | – | –
CCOC(=O)NC(=NC(C)C)Nc1ccc2c(c1)Cc1cc(NC(=NC(C)C)NC(=O)OCC)ccc1-2 [Compound 7d, 2,7-Bis(N″-ethoxycarbonyl-N′-iso-propyl)guanidino-9H-fluorene] | −0.5 | – | – | – | 17.75 days | 0/4 | 2500 nM | 6300 nM | – | –
